Reference: US20220183287A1, “METHODS FOR KILLING PESTS” (The United States of America, as represented by the …, priority 2020, published 2022)
Where “and” joins values, the source holds several entries; their conditions need not be identical. Equal values may be shown once. Marks after values point to notes of the source that are not given here.

Experiments:
[1] = system: M. incognita second-stage juveniles; experiment: Microwell assay: previously hatched J2 immersed in compounds, activity and viability; settings: for % Active Day 1 / % Active Day 2: 0.1%, previously hatched J2 in aqueous solution; for viability at 0.1 % / mortality at 0.1 %: Meloidogyne incognita, 72 h; for viability at 0.1 %: read-out: % Viable Day 3 rinsed; for mortality at 0.1 %: read-out: nonviable (killed) J2
Method: Nematode cultures: As described in Meyer et al. (Meyer, S. L. F., et al., Nematropica, 46: 85-96 (2016)), M. incognita race 1 (originally isolated in Maryland) was maintained in a greenhouse (24° to 29° C.; natural and supplemental lighting combined for a 16-h daylength) on susceptible cayenne pepper (Capsicum annuum) TA-136′ plants. All greenhouse experiments described herein were conducted under the same conditions. Two to three months after pepper plant inoculation, egg masses were picked from roots. Eggs were separated by 5 min immersion in 0.6% sodium hypochlorite, followed by a rinse in sterile distilled water (SDW). To collect second-stage juveniles (J2) for microwell assays, the surface-sterilized eggs were placed in a hatching chamber (Spectra/Mesh Nylon Filter, openings 25-μm-diam.; Spectrum Laboratories Inc., Rancho Dominguez, Calif.) set in an autoclaved dish that was placed on a rotary shaker for 3 days at 35 rpm. For some M. incognita and H. glycines assays, 25 or […] kanamycin monosulfate (Phytotechnology Laboratories, Shawnee Mission, Kans.) was added to the hatching chamber to prevent growth of bacteria. The collected J2 were then rinsed with water to remove the kanamycin monosulfate.
(§1) Compounds for the studies were purchased from three different companies: methyl benzoate, CAS Number 93-58-3, ≥99% purity; Tween 20, CAS Number: 9005-64-5; Tween 80, CAS Number: 9005-65-6; ethyl benzoate, CAS Number: 93-89-0, natural, ≥99% purity, FCC, FG; vinyl benzoate, CAS Number: 769-78-8, ≥99% purity; n-propyl benzoate, CAS Number: 2315-68-6, 99% purity; n-butyl benzoate, CAS Number: 136-60-7, 99% purity; benzyl benzoate, CAS Number: 120-51-4, natural, ≥99% purity, FCC, FG; methyl 2-methylbenzoate, CAS Number: 89-71-4, 99% purity; methyl 2-chlorobenzoate, CAS Number: 610-96-8, ≥98% purity; methyl 2-methoxybenzoate, CAS Number: 606-45-1, 99% purity and methyl 2-nitrobenzoate, CAS Number: 606-27-9, 98% purity were purchased from Sigma-Aldrich (St. Louis, Mo.). Compounds, iso-butyl benzoate, CAS Number 120-50-3, >98% purity; n-pentyl benzoate, CAS Number: 2049-96-9, ≥98% purity; and n-hexyl benzoate, CAS Number: 6789-88-4, ≥98% purity were purchased from Alfa Aesar (Tewksbury, Mass.). The compounds methyl 3-methoxybenzoate (methyl m-anisate), CAS Number: 5368-81-0; 97% and methyl 3-methylbenzoate (methyl m-toluate), CAS Number: 99-36-5, 97% purity were purchased from TCI America (Portland, Oreg.). All chemicals were used without further purification. Deionized water (DI) containing 1% emulsifier (v/v), Tween 20 and Tween 80, at 1:1 ratio was used to make different VOCs (volatile organic compounds) water solutions and also used as blank control.
(§2) For tests with individual compounds, the concentration of each compound was 0.1% before placement into wells; the final concentration in the wells was 0.095% after addition to eggs or J2 suspended in water. These are reported as 0.1% herein. An exception was Trial 2, M. incognita J2 activity and viability (Table 2): the final concentration was 0.1% after placement in wells. Low concentrations were selected for assays of combined compounds to determine if the combinations would increase nematotoxicity.
(§3) Laboratory assays were conducted in 96-well polystyrene plates following general procedures described in Wen et al. (2019). Each well received approximately 35 J2 (for previously hatched J2 assays) or 35 eggs that each contained either a first-stage juvenile (J1) or a J2. The plates were covered with plastic adhesive sealing film (Excel Scientific, Inc., Victorville Calif.) and then with the plate lids. Parafilm (Bemis, Neenah, Wis.) was used to seal the plates. The nematodes were then incubated at 26° C. […] Following the counts on Day 2, the treatments were removed and the J2 rinsed twice with SDW and incubated in the second rinse. […] Two trials were conducted for each assay.

[2] = system: M. incognita eggs; experiment: Microwell assay: eggs immersed in compounds, hatch and activity of hatched J2; assay type: in vivo, Meloidogyne incognita; settings: 0.1%; for % Active Day 2 / % Active Day 5 / % Active Day 7: J2 hatched from immersed eggs; for Hatch Day 2 / Hatch Day 5 / Hatch Day 7: hatched J2 per well, about 35 eggs per well
Method: (§4) All chemicals were used without further purification.
(§5) These are reported as 0.1% herein.
(§6) The nematodes were then incubated at 26° C. […] Two trials were conducted for each assay.
(§7) The assumptions of the model were checked.

[3] = system: H. glycines second-stage juveniles; experiment: Microwell assay: previously hatched J2 immersed in compounds, activity and viability; settings: for reduction in % viable J2 compared with the Tween control / % Active Day 1 / % Active Day 2: 0.1%; for reduction in % viable J2 compared with the Tween control: Day 3 following water rinse; for % Active Day 1 / % Active Day 2: previously hatched J2 in aqueous solution; for viability at 0.1 %: Heterodera glycines, 72 h, read-out: % Viable Day 3 rinsed
Method: The isolate of H. glycines race 3, originally isolated in Maryland, was maintained on soybean (Glycine max cv. ‘Essex’). As previously described (Wen, Y., et al. Plant Disease, 103: 2191-2198 (2019)), the roots were gently rubbed in water to dislodge cysts and mature females. The egg suspensions were then poured through nested sieves (#20 over /#60; pore sizes 850 μm and 250 μm diam., respectively) into a 454 g/liter sucrose solution. After 15 min, the cysts and females and cysts that floated to the top were collected, rinsed in water, and crushed with a rubber stopper on a #60 sieve (250-μm diam. pore size) that was partially submerged in distilled water. The egg suspension was washed through nested #230 over #500 sieves (pore sizes 63 μm and 25-μm diam., respectively). The eggs were collected in distilled water, and J2 hatched as described above.
as §1, §2, §3
Statistical analyses: The data were analyzed as either a general linear model using JMP or a generalized linear model for the best distribution to fit the residual using Proc Glimmix (Sas Institute). The assumptions of the model were checked. If not met, then appropriate statistical techniques were used so that data could met the assumptions of the models. In Sas, mean comparisons were done with Sidak adjusted p-values to hold the experiment-wise error at 0.05.

[4] = system: Heterodera glycines eggs; experiment: Microwell assay: eggs immersed in compounds, hatch and activity of hatched J2; assay type: in vivo; settings: 0.1%; for % Active Day 2 / % Active Day 5 / % Active Day 7: J2 hatched from immersed eggs; for Hatch Day 2 / Hatch Day 5 / Hatch Day 7: hatched J2 per well, about 35 eggs per well; for pest or weed control at 0.1 %: Heterodera glycines, 168 h, read-out: egg hatch suppression compared with the Tween control
Method: as §4, §5, §6, §7

| SMILES | % Active Day 1 [1] | % Active Day 2 [1] | viability at 0.1 % [1] [%] | mortality at 0.1 % [1] [%] | % Active Day 2 [2] | % Active Day 5 [2] | % Active Day 7 [2] | Hatch Day 2 [2] | Hatch Day 5 [2] | Hatch Day 7 [2] | reduction in % viable J2 compared with the Tween control [3] [%] | % Active Day 1 [3] | % Active Day 2 [3] | viability at 0.1 % [3] [%] | % Active Day 2 [4] | % Active Day 5 [4] | % Active Day 7 [4] | Hatch Day 2 [4] | Hatch Day 5 [4] | Hatch Day 7 [4] | further results |
| --- | --- | --- | --- | --- | --- | --- | --- | --- | --- | --- | --- | --- | --- | --- | --- | --- | --- | --- | --- | --- | --- |
| COC(=O)c1ccccc1[N+](=O)[O-] [M2NB, Methyl 2-nitrobenzoate] | 0 ^f % | 0 ^d % | 0 | 100 | 29.5 ^b % | 15.2 ^d % | 18.7 ^b % | 5.0 ^bcd | 12.1 ^b | 19.5 ^b | 51 | 54.2 ^c % | 34.1 ^de % | 30 | 35.8 ^c % | 28.6 ^bcd % | 25.3 ^bc % | 9.1 ^abc | 10.2 ^bc | 10.0 ^bc | decrease in total hatch compared with the Tween control ([2]; Day 7): about 58%; % active J2 suppression compared with the Tween control ([4]; Day 7): 53% |
| COC(=O)c1cccc(OC)c1 [M3MOB, Methyl 3-methoxybenzoate] | 0 ^f % | 0 ^d % | 0 | 100 | 0 ^c % | 0 ^e % | 0 ^c % | 2.0 ^cd | 2.7 ^de | 2.8 ^de |  | 12.2 ^d % | 10.4 ^g % | 11.1 | 0 ^e % | 0 ^f % | 6.9 ^bc % | 6.3 ^bcd | 6.4 ^bcd | 6.0 ^cd | pest or weed control at 0.1 % ([4]; Day 7): 64% |
| CC(C)COC(=O)c1ccccc1 [iBB, iso-Butyl benzoate] | 54.8 ^ab % | 41.1 ^b % | 42.9 | 52 | 61.2 ^ab % | 51.6 ^bc % | 38.0 ^b % | 6.4 ^abc | 7.2 ^bcd | 8.2 ^bcd | 43 | 55.6 ^c % | 45.2 ^cd % | 34.5 | 22.4 ^cd % | 18.4 ^cde % | 13.6 ^bc % | 6.7 ^bcd | 7.5 ^bcd | 7.3 ^bcd | decrease in % active J2 compared with the Tween control ([2]; J2 hatched from eggs, 7-day incubation): 60% |
| CCCCOC(=O)c1ccccc1 [nBB, n-Butyl benzoate] | 14.8 ^cd % | 5.8 ^c % | 2.9 |  | 17.1 ^b % | 0 ^e % | 0% and 0 ^c % | 3.3 ^cd | 4.1 ^cde | 4.6 ^de |  | 52.7 ^c % | 24.2 ^ef % | 26.3 | 3.6 ^d % | 9.2 ^de % | 8.8 ^bc % | 5.2 ^cd | 5.6 ^cd | 5.4 ^cd | nonviable (killed) J2 ([1]; in vivo): killed most of the J2; pest or weed control at 0.1 % ([4]; Day 7): 64 to 80% |
